Results published in patent publication US20260234180A1, “AMINO ACID DERIVATIVE, PREPARATION METHOD THEREFOR, AND PHARMACEUTICAL COMPOSITION FOR TREATING HEPATITIS, COMPRISING SAME” (priority 2021, published 2026).

Biological target: T1, NTCP (Na+ taurocholate cotransporting peptide), HepG2-hNTCP-C4 cell line (Homo sapiens, UniProt Q14973)
T1 construct: expressed in transfected cells; host or cells: HepG2-hNTCP-C4 (HepG2 cells expressing human NTCP)
T1 sequence (Q14973 1-349): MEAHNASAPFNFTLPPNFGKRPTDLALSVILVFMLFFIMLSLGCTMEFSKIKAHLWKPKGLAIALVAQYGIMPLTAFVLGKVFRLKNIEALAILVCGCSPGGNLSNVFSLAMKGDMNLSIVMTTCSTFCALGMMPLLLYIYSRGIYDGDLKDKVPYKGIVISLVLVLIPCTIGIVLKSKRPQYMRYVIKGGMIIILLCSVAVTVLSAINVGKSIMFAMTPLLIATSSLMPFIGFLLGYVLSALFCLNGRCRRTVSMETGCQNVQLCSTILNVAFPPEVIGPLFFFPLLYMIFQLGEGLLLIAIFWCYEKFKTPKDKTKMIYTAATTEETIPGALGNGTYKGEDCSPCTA
Assay: Inhibition of binding between FITC-labelled PreS1 and NTCP expressing cell line, flow cytometry
Settings: for ability to inhibit the binding between PreS1 and NTCP expressing cell lines (bile acid series) / relative fluorescence intensity compared to Comparative Example 1 (LCA): compound 50 µM; for ability to inhibit the binding between PreS1 and NTCP expressing cell lines (bile acid series) / effect of inhibiting the binding between PreS1 and NTCP expressing cell lines by treatment concentration: 20 nM PreS1; for effect of inhibiting the binding between PreS1 and NTCP expressing cell lines by treatment concentration: 0.2 μM, 2 μM, 10 μM, 50 μM; for relative fluorescence intensity compared to Comparative Example 1 (LCA): 20 nM PreS1, 4° C., 2 hours, lower = more inhibited binding
How it was run: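 HepG2-hNTCP-C4 cells were pre-chilled at 4 °C for 30 min, then exposed to 20 nM Myr-PreS1-Lys(FITC) plus compound at 4 °C for 2 h, mostly at 50 μM, with some series at 0.2–50 μM or 2–50 μM. After washes and EDTA detachment, cell-bound green fluorescence was read by flow cytometry.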

SMILES | ability to inhibit the binding between PreS1 and NTCP expressing cell lines (bile acid series) | effect of inhibiting the binding between PreS1 and NTCP expressing cell lines by treatment concentration | relative fluorescence intensity compared to Comparative Example 1 (LCA)
CC(C)[C@H](NC(=O)CC[C@@H](C)[C@H]1CC[C@H]2[C@@H]3[C@@H](O)C[C@@H]4C[C@H](O)CC[C@]4(C)[C@H]3CC[C@]12C)C(=O)O [Example 3, (S)-2-((R)-4-((3R,5S,7S,8R,9S,10S,13R,14S,17R)-3,7-dihydroxy-10,13-dimethyl-hexadecahydro-1H-cyclopenta[a]phenanthren-17-yl)pentanamido)-3-methylbutanoic acid] | relatively excellent |  | 
CC[C@@H](C)[C@H](NC(=O)CC[C@@H](C)[C@H]1CC[C@H]2[C@@H]3CC[C@@H]4C[C@H](O)CC[C@]4(C)[C@H]3C[C@H](O)[C@]12C)C(=O)O [Example 10, (2S,3R)-2-((R)-4-((3R,5R,8R,9S,10S,12S,13R,14S,17R)-3,12-dihydroxy-10,13-dimethyl-hexadecahydro-1H-cyclopenta[a]phenanthren-17-yl)pentanamido)-3-methylpentanoic acid] | relatively excellent |  | 
CC[C@@H](C)[C@H](NC(=O)CC[C@@H](C)[C@H]1CC[C@H]2[C@@H]3[C@@H](O)C[C@@H]4C[C@H](O)CC[C@]4(C)[C@H]3CC[C@]12C)C(=O)O [Example 2, (2S,3R)-2-((R)-4-((3R,5S,7S,8R,9S,10S,13R,14S,17R)-3,7-dihydroxy-10,13-dimethyl-hexadecahydro-1H-cyclopenta[a]phenanthren-17-yl)pentanamido)-3-methylpentanoic acid] | relatively excellent |  | 
CC[C@@H](C)[C@H](NC(=O)CC[C@@H](C)[C@H]1CC[C@H]2[C@@H]3CC[C@@H]4C[C@H](O)CC[C@]4(C)[C@H]3CC[C@]12C)C(=O)O [Example 1, (2S,3R)-2-((R)-4-((3R,5R,8R,9S,10S,13R,14S,17R)-3-hydroxy-10,13-dimethyl-hexadecahydro-1H-cyclopenta[a]phenanthren-17-yl)pentanamido)-3-methylpentanoic acid] | relatively excellent | concentration dependent | low and lower
CC(C)[C@H](NC(=O)CC[C@@H](C)[C@H]1CC[C@H]2[C@@H]3CC[C@@H]4C[C@H](O)CC[C@]4(C)[C@H]3CC[C@]12C)C(=O)O [Example 44, (S)-2-((R)-4-((3R,5R,8R,9S,10S,13R,14S,17R)-3-hydroxy-10,13-dimethyl-hexadecahydro-1H-cyclopenta[a]phenanthren-17-yl)pentanamido)-3-methylbutanoic acid] | relatively excellent | concentration dependent | low and lower
